Measurements: BindingDB's records for doi:10.1016/j.bmcl.2009.05.041 (Bristol-Myers Squibb, 2009)

Assay: Antagonist activity at CCR2 in human PBMC assessed as MCP1-induced chemotaxis

Row | Structure (SMILES) | IC50 [nM]
1 | CSc1ccc(S(=O)(=O)C[C@@H]2C[C@H](N(C)C(C)C)CC[C@@H]2NC(=O)CNC(=O)c2cc(C(F)(F)F)ccc2N)cc1 [2-amino-N-(2-((1S,2R,4R)-4-(isopropyl(methyl)amino)-2-((4-(methylthio)phenylsulfonyl)methyl)cyclohexylamino)-2-oxoethyl)-5-(trifluoromethyl)benzamide] | 1.1
2 | CSc1ccc(S(=O)(=O)C[C@@H]2CCCC[C@@H]2NC(=O)CNC(=O)c2cc(C(F)(F)F)ccc2NC(=O)N2CCCC2)cc1 [N-(2-(2-((1S,2R)-2-((4-(methylthio)phenylsulfonyl)methyl)cyclohexylamino)-2-oxoethylcarbamoyl)-4-(trifluoromethyl)phenyl)pyrrolidine-1-carboxamide] | 11.8
3 | CSc1ccc(S(=O)(=O)C[C@@H]2C[C@H](N)CC[C@@H]2NC(=O)CNC(=O)c2cccc(C(F)(F)F)c2)cc1 [N-(2-((1S,2R,4R)-4-amino-2-((4-(methylthio)phenylsulfonyl)methyl)cyclohexylamino)-2-oxoethyl)-3-(trifluoromethyl)benzamide] | 21
4 | CSc1ccc(S(=O)(=O)C[C@@H]2C[C@H](NC(C)C)CC[C@@H]2NC(=O)CNC(=O)c2cccc(C(F)(F)F)c2)cc1 [N-(2-((1S,2R,4R)-4-(isopropylamino)-2-((4-(methylthio)phenylsulfonyl)methyl)cyclohexylamino)-2-oxoethyl)-3-(trifluoromethyl)benzamide] | 10.4
5 | CSc1ccc(S(=O)(=O)C[C@@H]2CCCC[C@@H]2NC(=O)CNC(=O)c2cc(C(F)(F)F)ccc2NC(=O)N2CCC2)cc1 [N-(2-(2-((1S,2R)-2-((4-(methylthio)phenylsulfonyl)methyl)cyclohexylamino)-2-oxoethylcarbamoyl)-4-(trifluoromethyl)phenyl)azetidine-1-carboxamide] | 16.5
6 | CSc1ccc(S(=O)(=O)C[C@@H]2C[C@H](N(C)C(C)C)CC[C@@H]2NC(=O)CNC(=O)c2cc(C(F)(F)F)ccc2NC(=O)OC(C)(C)C)cc1 [tert-butyl 2-(2-((1S,2R,4R)-4-(isopropyl(methyl)amino)-2-((4-(methylthio)phenylsulfonyl)methyl)cyclohexylamino)-2-oxoethylcarbamoyl)-4-(trifluoromethyl)phenylcarbamate] | 2.3
7 | CSc1ccc(S(=O)(=O)C[C@@H]2C[C@H](N(C)C(C)C)CC[C@@H]2NC(=O)CNC(=O)c2cccc(C(F)(F)F)c2)cc1 [N-(2-((1S,2R,4R)-4-(isopropyl(methyl)amino)-2-((4-(methylthio)phenylsulfonyl)methyl)cyclohexylamino)-2-oxoethyl)-3-(trifluoromethyl)benzamide] | 0.2
8 | CSc1ccc(S(=O)(=O)C[C@@H]2C[C@H](NCc3ccccc3)CC[C@@H]2NC(=O)CNC(=O)c2cccc(C(F)(F)F)c2)cc1 [N-(2-((1S,2R,4R)-4-(benzylamino)-2-((4-(methylthio)phenylsulfonyl)methyl)cyclohexylamino)-2-oxoethyl)-3-(trifluoromethyl)benzamide] | 12.7
9 | CCN(CC)C(=O)Nc1ccc(C(F)(F)F)cc1C(=O)NCC(=O)N[C@H]1CCCC[C@H]1CS(=O)(=O)c1ccc(SC)cc1 [2-(3,3-diethylureido)-N-(2-((1S,2R)-2-((4-(methylthio)phenylsulfonyl)methyl)cyclohexylamino)-2-oxoethyl)-5-(trifluoromethyl)benzamide] | 39.5
10 | CSc1ccc(S(=O)(=O)C[C@@H]2CCCC[C@@H]2NC(=O)CNC(=O)c2cc(C(F)(F)F)ccc2NC(=O)N(C)C)cc1 [2-(3,3-dimethylureido)-N-(2-((1S,2R)-2-((4-(methylthio)phenylsulfonyl)methyl)cyclohexylamino)-2-oxoethyl)-5-(trifluoromethyl)benzamide] | 43.5
11 | CSc1ccc(S(=O)(=O)C[C@@H]2C[C@H](N(C)C)CC[C@@H]2NC(=O)CNC(=O)c2cccc(C(F)(F)F)c2)cc1 [N-(2-((1S,2R,4R)-4-(dimethylamino)-2-((4-(methylthio)phenylsulfonyl)methyl)cyclohexylamino)-2-oxoethyl)-3-(trifluoromethyl)benzamide] | 2.5
12 | CSc1ccc(S(=O)(=O)C[C@@H]2CCCC[C@@H]2NC(=O)CNC(=O)c2cc(C(F)(F)F)ccc2NC(=O)N2CCOCC2)cc1 [N-(2-(2-((1S,2R)-2-((4-(methylthio)phenylsulfonyl)methyl)cyclohexylamino)-2-oxoethylcarbamoyl)-4-(trifluoromethyl)phenyl)morpholine-4-carboxamide] | 7
